Starred links: 1 amine or outer side, 2 acyl side, 3 side chain; linkers in the order of their positions; H or OH if unused. Positions of bridges follow the written chain, without caps; N, C: chain ends. Non-standard residues stand in square brackets, D forms with d. Residues, ends and D or L forms follow the SMILES beside them. Chains are numbered I, II in the order given. Actinocin(9to1) = Cc1c2oc3c(C)ccc(C(=O)[*:1])c3nc-2c(C(=O)[*:2])c(N)c1=O; NMeV = CN[C@H](C(=O)O)C(C)C; Sar = CNCC(=O)O
Assays:
rat astrocytes = details: Zelenaia et al., 2000; cited from earlier work
hEAAT2 promoter [1] = assay: hEAAT2 promoter luciferase assay of agents in H4 glioma cells (FIG. 12); assay type: cell-based, human; details: H4 malignant glioma cells; 10 μM
Method: (§1) FIG. 12. Effect of various agents on hEAAT2 promoter activity in H4 human malignant glioma cells. A: ceftriaxone; B: amoxicillin; C: chloramphenicol; D: thiamphenicol; E: vancomycin; F: glycine; G: glutamate; H: DMSO; I: dibutyryl cAMP. H4 is a rare clone of malignant glioma cells that support hEAAT2 promoter activity. H4 cells were seeded at 5×10^4 cells/35-mm plate. Twenty-four h later cells were untreated (CON) or received the indicated compound at a final concentration of 10 μM. Forty-eight h later the cells were transfected with a FL pGL3/EAAT2 luciferase reporter construct (5 μg) plus a pSVβGalactosidase construct (1 μg) using the calcium phosphate precipitation method (Su et al. 2003, Proc. Natl. Acad. Sci. USA 100:1955-1960). After an additional 48 h, cell lysates were prepared and luciferase activity was determined using the Luciferase Assay System Kit (Promega, E1501) and luminescence determined using a luminometer (Turner Designs, TD20/20) (Su et al. 2003, Proc. Natl. Acad. Sci. USA 100:1955-1960). Data presented are the average of 3 independent plates±S.D. Qualitatively similar results were obtained in 2 additional experiments.
as §1, with “H4, the third cell line examined,” for “FIG. 12. Effect of various agents on hEAAT2 promoter activity in H4 human malignant glioma cells. A: ceftriaxone; B: amoxicillin; C: chloramphenicol; D: thiamphenicol; E: vancomycin; F: glycine; G: glutamate; H: DMSO; I: dibutyryl cAMP. H4”, “activity. In the studies shown in FIG. 12,” for “activity.”

hEAAT2 promoter [2] = assay: hEAAT2 promoter luciferase assay of agents in PHFA-Im (FIG. 11); assay type: cell-based, human; details: 10 μM
Method: as §1, with “FIG. 11.” for “FIG. 12.”, “in immortalized primary” for “in H4”, “human fetal astrocytes (PHFA-Im).” for “human malignant glioma cells.”, “cAMP. PHFA-Im” for “cAMP. H4”, “a human telomerase-immortalized” for “a rare”, “of primary human fetal astrocytes. PHFA-Im” for “of malignant glioma cells that support hEAAT2 promoter activity. H4”
as §1, with “The effects” for “FIG. 12. Effect”, “these same” for “various”, “also were examined” for “on hEAAT2 promoter activity”, “two other cell lines to confirm the generality of the findings. […] PHFA-Im” for “H4 human malignant glioma cells. A: ceftriaxone; B: amoxicillin; C: chloramphenicol; D: thiamphenicol; E: vancomycin; F: glycine; G: glutamate; H: DMSO; I: dibutyryl cAMP. H4”, “cell line developed from a clonal isolate” for “rare clone”, “a primary human fetal astrocyte immortalized by transformation with the reverse transcriptase subunit of human telomerase. PHFA-Im” for “malignant glioma cells that support hEAAT2 promoter activity. H4”

hEAAT2 promoter [3] = assay: hEAAT2 promoter luciferase assay of agents in PHFA (FIG. 10); assay type: cell-based, human; details: PHFA passage #3; 10 μM
Method: as §1, with “10.” for “12.”, “on primary” for “in H4”, “fetal astrocytes (PHFA).” for “malignant glioma cells.”, “PHFA (passage #3)” for “H4 is a rare clone of malignant glioma cells that support hEAAT2 promoter activity. H4 cells”, “1×10^5” for “5×10^4”
Identification of Agents that Modulate hEAAT2 Promoter Activity. FIGS. 10-12 show the effects of various agents on hEAAT2 promoter activity in PHFA (FIG. 10), PHFA-Im (FIG. 11) and H4 glioma (FIG. 12) cells. In the studies shown in FIG. 10, PHFA (passage #3) were seeded at 1×10^5 cells/35-mm plate. Twenty-four h later cells were untreated (CON) or received the indicated compound at a final concentration of 10 μM. Forty-eight h later the cells were transfected with a FL pGL3/EAAT2 luciferase reporter construct (5 μg) plus a pSVβGalactosidase construct (1 μg) using the calcium phosphate precipitation method (Su et al. 2003, Proc. Natl. Acad. Sci. USA 100:1955-1960). After an additional 48 h, cell lysates were prepared and luciferase activity was determined using the Luciferase Assay System Kit (Promega, E1501) and luminescence determined using a luminometer (Turner Designs, TD20/20) (Su et al. 2003, Proc. Natl. Acad. Sci. USA 100:1955-1960). Data presented are the average of 3 independent plates±S.D. Qualitatively similar results were obtained in 2 additional experiments.

hEAAT2 promoter activity (hEAAT2 promoter [2])	hEAAT2 promoter activity (hEAAT2 promoter [3])	Structure (SMILES)	toxicity (rat astrocytes)	hEAAT2 promoter activity (hEAAT2 promoter [1])
–	–	Cc1c2oc3c(C)ccc(C(=O)N[C@@H]4C(=O)N[C@H](C(C)C)C(=O)N5CCC[C@H]5C(=O)N(C)CC(=O)N(C)[C@@H](C(C)C)C(=O)O[C@@H]4C)c3nc-2c(C(=O)N[C@@H]2C(=O)N[C@H](C(C)C)C(=O)N3CCC[C@H]3C(=O)N(C)CC(=O)N(C)[C@@H](C(C)C)C(=O)O[C@@H]2C)c(N)c1=O [actinomycin D] (I: T[dV]P[Sar][NMeV] / II: T[dV]P[Sar][NMeV]; ester I:1-I:C, II:1-II:C; linker I:N-II:N via Actinocin(9to1))	toxic	–
potent stimulators	potent stimulators	O=C(N[C@H](CO)[C@H](O)c1ccc([N+](=O)[O-])cc1)C(Cl)Cl [chloramphenicol]	–	potent stimulators
potent stimulators	potent stimulators	CO/N=C(\C(=O)N[C@@H]1C(=O)N2C(C(=O)O)=C(CSc3nc(=O)c(=O)[nH]n3C)CS[C@H]12)c1csc(N)n1 [ceftriaxone]	–	potent stimulators
potent stimulators	potent stimulators	CS(=O)(=O)c1ccc([C@@H](O)[C@@H](CO)NC(=O)C(Cl)Cl)cc1 [thiamphenicol]	–	potent stimulators

Reference: patent US20060127980A1, “Human excitatory amino acid transporter-2 gene promoter and uses thereof” (priority 2003, published 2006)
